Source: patent US8633237B2, “Indane derivatives” (Merck Sharp & Dohme B.V., priority 2009, dated 2014)

Target: T1, AMPA (GluR1) receptor (Homo sapiens, UniProt P42261)
T1 construct: expressed in transfected cells; host or cells: HEK cells (HEK.GluR1(i)), kept under hygromycin selection
Assay: Ca2+ influx fluorescence assay (FLEXstation, Fluo-3) in HEK.GluR1(i) cells
Type: cell-based
Conditions: glutamate +/- test compound, read-out: EC50, positive modulation of the AMPA receptor
From the text: The compounds in this invention may be tested using a biological assay which measures Ca^2+ influx mediated through positive modulation of the AMPA (GluR1) receptor using standard techniques in the art such as, but not limited to, a FLEXstation (manufactured by Molecular Devices, Sunnyvale, Calif.). An optical readout using fluorescent probes is employed to measure ion channel dependent changes in intracellular ion concentration or membrane potential. The assay utilises the Ca^2+ conductance of functional homomeric GluR1(i) AMPA receptors to generate glutamate-dependent Ca^2+ responses. Influx of Ca^2+ through the ion channel is measured indirectly through an increase in intracellular Ca^2+ levels using the calcium sensitive dye such as, but not limited to, Fluo-3 (Molecular Devices, Sunnyvale, Calif.) in FLEXstation. A positive AMPA receptor modulator, in the presence of glutamate, will result in an influx of Ca^2+ through the ion channel which can be measured indirectly through an increase in intracellular Ca2+ levels using the calcium sensitive dye Fluo-3 in FLEXstation.
HEK.GluR1(i) cells were maintained in DMEM supplemented with 10% fetaclone II, 1% non-essential amino acids and 150 μg/mL hygromycin, at 37° C./5% CO2. […]

T1 sequence (P42261 19-906 isoform P42261-2 limits assumed, species assumed): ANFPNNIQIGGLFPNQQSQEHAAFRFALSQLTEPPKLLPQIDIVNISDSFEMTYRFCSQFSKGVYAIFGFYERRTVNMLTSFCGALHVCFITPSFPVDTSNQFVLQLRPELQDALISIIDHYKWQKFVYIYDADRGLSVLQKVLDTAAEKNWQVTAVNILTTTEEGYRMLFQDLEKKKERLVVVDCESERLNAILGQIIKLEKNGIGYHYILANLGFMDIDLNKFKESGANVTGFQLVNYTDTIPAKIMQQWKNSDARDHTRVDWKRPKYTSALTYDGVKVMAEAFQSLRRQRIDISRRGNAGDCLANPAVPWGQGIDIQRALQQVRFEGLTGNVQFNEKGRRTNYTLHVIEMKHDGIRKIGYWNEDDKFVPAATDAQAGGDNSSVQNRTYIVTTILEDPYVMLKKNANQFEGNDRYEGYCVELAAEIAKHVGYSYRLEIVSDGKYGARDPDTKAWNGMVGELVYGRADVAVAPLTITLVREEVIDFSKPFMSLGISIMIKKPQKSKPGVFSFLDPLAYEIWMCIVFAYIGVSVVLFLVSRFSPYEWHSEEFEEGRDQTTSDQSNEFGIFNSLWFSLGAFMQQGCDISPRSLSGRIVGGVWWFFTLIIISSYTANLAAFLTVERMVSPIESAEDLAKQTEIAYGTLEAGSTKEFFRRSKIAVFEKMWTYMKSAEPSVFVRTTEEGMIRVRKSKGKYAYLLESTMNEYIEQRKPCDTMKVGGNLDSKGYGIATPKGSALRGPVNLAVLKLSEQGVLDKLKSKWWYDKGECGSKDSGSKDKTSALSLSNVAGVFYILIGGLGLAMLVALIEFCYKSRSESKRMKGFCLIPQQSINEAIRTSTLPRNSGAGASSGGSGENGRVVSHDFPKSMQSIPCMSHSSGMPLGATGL

CC(C)S(=O)(=O)N[C@H]1Cc2ccc(Oc3cccc(C(F)(F)F)c3)cc2C1 [Example 9, (S)-N-(5-(3-(trifluoromethyl)phenoxy)-2,3-dihydro-1H-inden-2-yl)propane-2-sulfonamide]
EC50: 2300 nM
